# Measured values from patent publication US9782399B2, “Pharmaceutical compositions which inhibit FKBP52-mediated regulation of androgen receptor function and methods of using same” (The United States of America, as represented by the …, priority 2009, dated 2017).
# Legend:
# Assay type in all cases: cell-based
# PSA protein = PSA protein expression in LNCaP cells (Western blotting); conditions: 100 μM, about 48 hours, R1881 0.5 nM
# Protocol: The amount of PSA protein expression levels was measured in cells from the prostate cancer cell line LNCaP, after treatment with either control, or about 1 to 100 μM of each of the four FTA compounds identified in the screen (Compounds 1-4). The protein was quantified by an immunohistochemical method using photodetection.
# LNCaP cells were maintained in RPMI-1640 medium containing 10% fetal bovine serum. Forty eight hours prior to the experiment, cells were washed several times in serum-free medium and then cultured in RPMI-1640 medium containing 10% charcoal-stripped fetal bovine serum (to remove endogenous androgens). After 48 hours in this medium, Compound 2 was added in a range of concentrations (0, 3, 10, 30, and 100 μM) for 24 hours, at which time the synthetic androgen, methyltrienolone (R1881), (Sigma, St. Louis, Mo.) was added (0.5 nM). After an additional 48 hours, cells were lysed as described in Yano A., et al., Proc. Natl. Acad. Sci. USA, 105:15541-46 (2008), and PSA protein was monitored by polyacrylamide gel electrophoresis and Western blotting with an anti-PSA antibody (sc-80304, Santa Cruz Biotechnology).
# PSA mRNA = PSA mRNA quantitation in LNCaP cells (RT-PCR); conditions: 100 μM, 24 hours, R1881
# Protocol: For PSA mRNA determination, cells were cultured and treated identically, except that lysis for mRNA extraction was performed 24 hours after addition of R1881. Total RNA was isolated using protocols and reagents contained in the Qiagen RNeasy Kit (Valencia, Calif.). TaqMan real-time quantitative RT-PCR analysis of PSA was performed using previously described techniques Hong J A, et al., Cancer Res., 65:7763-74 (2005); Guo F, et al., Cancer Res., 65:10536-44 (2005). The amount of PSA mRNA level and total protein in cells from the prostate cancer cell line LNCaP was measured after treatment with either control, or about 1 to 100 μM of each of the four compounds identified in the screen (Compounds 1-4). It was known that the expression of PSA mRNA in LNCaP cells is driven by an androgen receptor mediated pathway. The mRNA is quantified by a photodetection method over time. […] At 100 μM, mRNA expression was decreased to 40% of control levels.
# AR = target: T1, AR (Homo sapiens, UniProt P10275, T878A); test: AR nuclear translocation in LNCaP cells; conditions: about 30 μM pre-treatment 24 hours, R1881 0.1 nM 2 hours
# T1 construct: endogenous in cells; host or cells: LNCaP
# T1 sequence (P10275 1-920 T878A): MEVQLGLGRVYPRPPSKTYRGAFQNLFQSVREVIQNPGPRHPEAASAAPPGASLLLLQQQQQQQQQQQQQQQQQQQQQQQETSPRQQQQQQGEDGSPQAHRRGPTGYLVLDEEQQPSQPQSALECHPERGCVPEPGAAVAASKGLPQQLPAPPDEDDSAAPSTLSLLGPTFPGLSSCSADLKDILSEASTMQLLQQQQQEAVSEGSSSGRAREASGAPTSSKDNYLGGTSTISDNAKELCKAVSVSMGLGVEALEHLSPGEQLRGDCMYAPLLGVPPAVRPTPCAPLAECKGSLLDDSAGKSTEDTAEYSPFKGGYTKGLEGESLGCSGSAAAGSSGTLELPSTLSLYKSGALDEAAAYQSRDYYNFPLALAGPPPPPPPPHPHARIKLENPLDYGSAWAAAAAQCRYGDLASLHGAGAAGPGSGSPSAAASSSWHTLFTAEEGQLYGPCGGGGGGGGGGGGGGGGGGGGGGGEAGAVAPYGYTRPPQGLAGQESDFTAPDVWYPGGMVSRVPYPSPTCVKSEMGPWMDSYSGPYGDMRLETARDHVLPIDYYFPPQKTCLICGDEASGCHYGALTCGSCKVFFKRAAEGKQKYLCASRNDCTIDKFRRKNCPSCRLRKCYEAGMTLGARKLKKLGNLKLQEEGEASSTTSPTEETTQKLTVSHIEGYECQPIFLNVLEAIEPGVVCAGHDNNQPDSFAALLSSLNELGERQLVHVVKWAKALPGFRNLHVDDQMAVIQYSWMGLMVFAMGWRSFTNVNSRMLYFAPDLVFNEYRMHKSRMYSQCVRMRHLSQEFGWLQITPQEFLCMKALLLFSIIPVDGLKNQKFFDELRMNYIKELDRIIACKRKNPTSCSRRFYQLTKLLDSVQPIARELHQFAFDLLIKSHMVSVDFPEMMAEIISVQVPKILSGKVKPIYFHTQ
# Protocol: LNCaP cells were maintained as above. At 50% confluence, cells were washed several times in serum-free RPMI-1640 medium, and re-cultured for 48 hours in RPMI-1640 medium containing 10% charcoal-stripped fetal bovine serum. At that time, compound 2 (termed 21D1C in FIG. 7) was added to a final concentration of about 30 μM. After an additional 24 hours, R1881 was added (0.1 nM) and cells were cultured for an additional 2 hours. At that time, cells were lysed and separated into nuclear and cytosolic fractions following published methods (Schreiber, et al., Nucleic Acids Res., 17:6419 (1989)). Quantification of AR in nucleus and cytosol was performed by Western blotting with an AR-specific antibody following polyacrylamide gel electrophoresis.
smiles,measurement,setting,value
O=C(Nc1cccc(Cl)c1Cl)C1CCCCC1 [Compound 2],PSA protein expression (printed as mRNA expression),PSA protein,20 % of control levels
same,PSA mRNA expression,PSA mRNA,40 % of control levels
same,ligand-dependent nuclear translocation of AR,AR,significantly prevented
